Like-named read-outs stand apart in the source and are kept apart here.
What was measured:
[1] = tested on: Pcca^−/−PCCA(A138T)^tg/0 mice; assay: Total CoA in liver and brain of Pcca−/−PCCA(A138T)tg/0 mice; format: in vivo; settings: 22.5 ppm (3 mg/kg) in chow for 30 days after weaning
Text: (§1) Water was supplied ad libitum.

[2] = tested on: Pcca^−/−PCCA(A138T)^tg/0 mice; assay: Acyl-CoA in liver, brain and heart of Pcca−/−PCCA(A138T)tg/0 mice; format: in vivo; settings: 22.5 ppm (3 mg/kg) in chow for 30 days after weaning
Method: as §1
Acyl-CoA Measurements by Mass Spectrometry: Acyl-CoAs were quantified as described by Sharma et al., Nat. Commun. 2018; 9:4399. Briefly, 30-40 mg of tissue was homogenized in 2 mL methanol and 1 mL water and incubated on ice for 30 minutes. 1.5 mL of chloroform and 1.2 mL of water was added to remove the lipids. The aqueous top layer was collected and 30 pmol of [13C]acetyl-CoA (Sigma) was added and dried overnight in a speedvac.
Mass spectrometry of the acyl-CoA distribution was performed using a Finnigan TSQ Quantum (Thermo Electron) triple-quadrupole mass spectrometer. The instrument was operated in positive mode using single ion monitoring (SIM) neutral loss scanning corresponding to the loss of the phosphoadenosine diphosphate from CoA species. The ion source parameters were as follows: spray voltage, 4,000 V; capillary temperature, 250° C.; capillary offset, −35 V; sheath gas pressure, 10; auxiliary gas pressure, 5; and tube lens offset was set by infusion of the polytyrosine tuning and calibration in electrospray mode. Acquisition parameters were as follows: scan time, 0.5 s; collision energy, 30 V; peak width Q1 and Q3, 0.7 FWHM; Q2 CID gas, 0.5 mTorr; source CID, 10 V; neutral loss, 507.0 m/z; SIM mass of 810 m/z with a scan width of 8 m/z to capture the signal from cellular acetyl-CoA and the [13C]acetyl-CoA internal standard.

[3] = tested on: Pcca^−/−PCCA(A138T)^tg/0 mice; assay: Plasma and urine acyl carnitines in Pcca−/−PCCA(A138T)tg/0 mice; format: in vivo
Method: (§2) The mice were maintained at 72′±2° F., humidity 50%±10% and a 14-hour light/10-hour dark cycle with the dark cycle starting at 20:00 hrs. Water was supplied ad libitum. The mice were randomized into the treatment arms to achieve a normal weight distribution. […] Blood was collected in ethylenediaminetetraacetic acid (EDTA) at P50 by cardiac puncture from isoflurane-anesthetized animals, plasma was prepared and stored frozen at −80° C. until analysis. Liver, brain, and heart were quickly excised, immediately flash frozen in liquid nitrogen and stored frozen at −80° C. until analysis.
(§3) Metabolites from Urine and Plasma: Water was added to thawed 24-hr urine samples to a final volume of 1 mL for each mouse. To 100 μL of urine or 20 μL of plasma, warfarin standard was added at a final concentration of 0.2 μM and the sample was incubated at −80° C. for 1 hour. The sample was centrifuged at 6000×g for 10 minutes to remove precipitants and the supernatant was analyzed by LC/MS/MS. Analysis was performed using a Shimadzu Prominence UFLC attached to a QTrap 4500 equipped with a Turbo V ion source (Sciex). […] The system was controlled by the Analyst® software (Sciex) and analyzed with MultiQuant™ 3.0.2 software (Sciex). The relative amount of metabolite was normalized to the amount of warfarin then the ratio to creatinine was calculated.

[4] = tested on: Pcca^−/−PCCA(A138T)^tg/0 mice; assay: Plasma and urine metabolites (TCA cycle intermediates) in Pcca−/−PCCA(A138T)tg/0 mice; format: in vivo; settings: 22.5 ppm (3 mg/kg) in chow
Method: as §2, §3

[5] = tested on: Pank1,2 neural knockout mice; assay: Survival of Pank1,2 neural knockout mice; format: in vivo; settings: 75 ppm in chow from postnatal day 14; untreated ~50%
Text: Water was supplied ad libitum. Mice were maintained on a chow diet with purified ingredients containing 19% kcal protein, 66.5% kcal carbohydrate and 14.4% kcal fat (Envigo #TD170542) which was similar to standard rodent chow (LabDiet #5013). The mice were randomized into the treatment arms. […] However, this is an approximation, as SynCre^+Pank1^−/−Pank2^−/− mice both weigh less and eat less than wild-type mice. […] At the end of the dark cycle, individual mice were placed in an open rectangular arena (36.8 cm×43.2 cm) for 5 min during the light cycle and motor activity was evaluated using a video tracking system provided by HVS Image with associated 2100 Plus software (San Diego, CA, USA). Each animal was placed in the center of the arena under standard overhead lighting and the total distance traveled and the percentage of time in motion were recorded. The behaviors of age-matched control animals, treated with Compound (I) and untreated, were quantified and compared. […] Liver, forebrain and hindbrain were quickly excised, approximately 30-50 mg pieces were immediately flash frozen in liquid N2 and stored frozen at −80° C. until analysis. The plasma and tissue samples were used for Compound (I) and total CoA determinations.
Following analysis of movement, all animals were sacrificed at postnatal Day 45 for examination of tissue CoA levels.

clinical = settings: for half-life / AUC / Cmax / Tmax: human, plasma; for AUC: AUCtau; for AUC / Cmax: arithmetic mean
Text: Following the screening period, eligible subjects will be admitted to the clinical unit on Day 1. All subjects will receive the study drug for 7 days starting on Day 1. […] Dosing frequency and any instructions regarding meal intake will depend on data from the SAD cohorts and will be provided in a separate document. The dosing duration may be increased to up to 14 days to allow for achievement of 3 half-lives. […] Subjects will return for an EOS visit on Day 15 or up to approximately 5 half-lives up to a maximum of Day 42 (whichever is longer).
The tentative starting dose for this portion of the study will be 30 mg daily. Dose escalation for Cohort 2 and beyond will be based on the safety, tolerability, and PK of the previous cohort. […] Planned doses for subsequent cohorts are 60, 120, 200, and 300 mg daily; the maximum dose increment between cohorts will be no more than 2 times the previous dose.

[6] = 22.5 ppm (3 mg/kg) in chow for 30 days after weaning
Method: The mice were maintained at 72′±2° F., humidity 50%±10% and a 14-hour light/10-hour dark cycle with the dark cycle starting at 20:00 hrs. Water was supplied ad libitum. The mice were randomized into the treatment arms to achieve a normal weight distribution. […] However, this is merely an approximation, as Pcca^−/−PCCA(A138T)^tg/0 mice weigh less but also eat less than wild-type mice. […] Blood was collected in ethylenediaminetetraacetic acid (EDTA) at P50 by cardiac puncture from isoflurane-anesthetized animals, plasma was prepared and stored frozen at −80° C. until analysis. Liver, brain, and heart were quickly excised, immediately flash frozen in liquid nitrogen and stored frozen at −80° C. until analysis.
The samples were incubated on ice for 30 min. Samples were spun at 3500×g for 10 min to pellet debris, and the supernatant was transferred to a glass vial. […] 30 mg of tissue was homogenized in 2 mL of 80% methanol containing 0.1 μM warfarin and incubated at −80° C. for 4 hr. Samples were spun at 3500×g for 10 min to pellet debris, supernatant was transferred to a glass tube and dried down using a Savant SPD1010 Speed-Vac (Thermo Scientific) overnight. Samples were resuspended in 400 μL of 80% acetonitrile to a final concentration of 0.5 μM and transferred to a glass vial. […]

[7] = rat, in vivo
[8] = dog, in vivo
in vivo = settings: mouse, rat, dog, monkey, iv

In the case of `O=C(Cc1ccc(C2CC2)c(F)c1)N1CCN(c2ccc(Cl)nn2)CC1` [Compound (I), 1-(4-(6-chloropyridazin-3-yl)piperazin-1-yl)-2-(4-cyclopropyl-3-fluorophenyl)ethan-1-one], the “Increase of brain total CoA compared to untreated mice” value ([1]; brain) is reported as ~44%, the “Increase of liver total CoA compared to untreated mice” value ([1]; liver) is reported as ~45% and the “C2-CoA in liver, brain and heart” value [2] is reported as “rescued to wild-type levels”. For the same molecule, the “Decreased free carnitine and C2-carnitine levels in plasma and urine” value ([3]; 22.5 ppm (3 mg/kg) in chow for 30 days after weaning) was “rescued”, the C3-carnitine in plasma ([3]; 22.5 ppm (3 mg/kg) in chow, plasma) was “decreased” and the “Levels of methylcitrate, methylmalonate and α-ketoglutarate in plasma” value [4] was “reduced”. For the same molecule, the “Probability of survival at postnatal Day 45” value [5] was −70%, the “Urinary excretion of Compound (I)” value (clinical; healthy subjects) was “negligible” and the half-life (clinical; oral) was 360 to 480 min. It also gave a half-life (clinical; oral, 30 mg) of 453 min, an AUC (clinical; oral, 30 mg, 30 mg QD, Day 1, AUC0-24) of 476 ng·h/mL and an AUC (clinical; oral, 30 mg, 30 mg QD, Day 7, AUC0-24) of 913 ng·h/mL. It also gave a Cmax (clinical; oral, 30 mg, 30 mg QD, Day 1) of 98.3 ng/mL, a Cmax (clinical; oral, 30 mg, 30 mg QD, Day 7) of 158 ng/mL and a Tmax (clinical; oral, 30 mg, Tmax, 30 mg QD, Day 1, median) of 1.5 h. The Tmax (clinical; oral, 30 mg, Tmax, 30 mg QD, Day 7, median) was 1.5 h, the AUC (clinical; oral, 50 mg, 50 mg Q12H, Day 1, AUC0-12) was 925 ng·h/mL and the Cmax (clinical; oral, 50 mg, 50 mg Q12H, Day 1) was 155 ng/mL. It also gave a Tmax (clinical; oral, 50 mg, Tmax, 50 mg Q12H, Day 1, median) of 1.5 h, a half-life (clinical; oral, 60 mg) of 402 min and an AUC (clinical; oral, 60 mg, 60 mg QD, Day 1, AUC0-24) of 1670 ng·h/mL. The AUC (clinical; oral, 60 mg, 60 mg QD, Day 7, AUC0-24) was 4050 ng·h/mL, the Cmax (clinical; oral, 60 mg, 60 mg QD, Day 1) was 240 ng/mL and the Cmax (clinical; oral, 60 mg, 60 mg QD, Day 7) was 505 ng/mL. For the same molecule, the Tmax (clinical; oral, 60 mg, Tmax, 60 mg QD, Day 1, median) was 1.75 h, the Tmax (clinical; oral, 60 mg, Tmax, 60 mg QD, Day 7, median) was 2.01 h and the half-life (clinical; oral, 70 mg) was 410 min. For the same molecule, the AUC (clinical; oral, 70 mg, 70 mg QD, Day 7, AUC0-24) was 2950 ng·h/mL, the Cmax (clinical; oral, 70 mg, 70 mg QD, Day 1) was 205 ng/mL and the Cmax (clinical; oral, 70 mg, 70 mg QD, Day 7) was 400 ng/mL. The Tmax (clinical; oral, 70 mg, Tmax, 70 mg QD, Day 1, median) was 1.5 h, the Tmax (clinical; oral, 70 mg, Tmax, 70 mg QD, Day 7, median) was 1.5 h and the Tmax (clinical; po, Tmax after oral administration, healthy subjects, over cohorts) was 1 to 2 h. For the same molecule, the “Increase in exposure with dose” value (clinical; total daily dose increased from 30 mg to 100 mg) was “more than dose-proportional”, the “Distribution of Compound (I) into liver, brain and heart” value [6] was “well distributed into the liver, and to a lesser extent in brain and heart” and the “Exposure in female mice versus males” value [6] was “higher exposures than males”. For the same molecule, the “Accumulation after multiple doses” value [7] was “Less than 2 fold”, the “Exposures in male rats versus female rats at the same doses” value [7] was “lower exposures than female rats” and the “Accumulation after multiple doses” value [8] was “Less than 2 fold”. It also gave a half-life (in vivo) of 60 to 180 min.

— US20260183283A1 (priority 2022, published 2026)
